Measurements as given in patent US20240391862A1, “(1,4,5-TRISUBSTITUTED-1H-PYRAZOL-3-YL)OXY-2-ALKOXY ALKYL ACIDS AND THEIR DERIVATIVES, THEIR SALTS AND THEIR USE AS HERBICIDAL AGENTS” (Bayer AKtiengesellschaft, priority 2021, published 2024).

Columns and labels:
ABUTH = test: Pre-emergence herbicidal effect, greenhouse pot test; type: in vivo, Abutilon theophrasti; details: 320 g/ha, scored visually after about 3 weeks vs untreated controls
From the text: (§1) Seeds of monocotyledonous and dicotyledonous weed plants and crop plants are placed in plastic or organic planting pots and covered with soil. The compounds of the invention, formulated in the form of wettable powders (WP) or as emulsion concentrates (EC), are then applied to the surface of the covering soil as aqueous suspension or emulsion with addition of 0.5% additive at a water application rate equivalent to 600 l/ha. After the treatment, the pots are placed in a greenhouse and kept under good growth conditions for the trial plants. After about 3 weeks, the effect of the preparations is scored visually in comparison with untreated controls as percentages. For example, 100% activity=the plants have died, 0% activity=like control plants.
(§2) Tables 1a to 19c below show the effects/crop compatibilities of selected compounds of the general formula (I) on various harmful plants at an application rate corresponding to 20 to 320 g/ha, which were obtained by the trial procedure specified above.
(§3) • ALOMY: Alopecurus myosuroides SETVI: Setaria viridis • AVEFA: Avena fatua POLCO: Fallopia convolvulus • AMARE: Amaranthus retroflexus ECHCG: Echinochloa crus-galli • LOLRJ: Lolium rigidum STEME: Stellaria media • VERPE: Veronica persica MATIN: Tripleurospermum inodorum • DIGSA: Digitaria sanguinalis ABUTH: Abutylon threophrasti • TRZAS: Triticum aestivum VIOTR: Viola tricolor • BRSNW: Brassica napus ZEAMX: Zea mays • PHBPU: Ipomoea purpurea GLXMA: Glycine max • ORYSA: Oryza sativa HORMU: Hordeum murinum

ALOMY = test: as above; type: in vivo, Alopecurus myosuroides; details: scored visually after about 3 weeks vs untreated controls
From the text: as §1, §2, §3

AMARE = test: as above; type: in vivo, Amaranthus retroflexus; details: scored visually after about 3 weeks vs untreated controls; for pest or weed control at 320 g/ha: Amaranthus retroflexus, 504 h, read-out: Pre-emergence effect at 320 g/ha against AMARE in %
From the text: as §1, §2, §3

AVEFA = test: as above; type: in vivo, Avena fatua; details: scored visually after about 3 weeks vs untreated controls
From the text: as §1, §2, §3

DIGSA = test: as above; type: in vivo, Digitaria sanguinalis; details: 320 g/ha, scored visually after about 3 weeks vs untreated controls
From the text: as §1, §2, §3

ECHCG = test: as above; type: in vivo, Echinochloa crus-galli; details: scored visually after about 3 weeks vs untreated controls; for pest or weed control at 320 g/ha: Echinochloa crus-galli, 504 h, read-out: Pre-emergence effect at 320 g/ha against ECHCG in %
From the text: as §1, §2, §3

LOLRI = test: as above; type: in vivo, Lolium rigidum; details: scored visually after about 3 weeks vs untreated controls
From the text: as §1, §2, §3

MATIN = test: as above; type: in vivo, Tripleurospermum inodorum; details: scored visually after about 3 weeks vs untreated controls; for pest or weed control at 320 g/ha: Tripleurospermum inodorum, 504 h, read-out: Pre-emergence effect at 320 g/ha against MATIN in %
From the text: as §1, §2, §3

PHBPU = test: as above; type: in vivo, Ipomoea purpurea; details: scored visually after about 3 weeks vs untreated controls
From the text: as §1, §2, §3

POLCO = test: as above; type: in vivo, Fallopia convolvulus; details: scored visually after about 3 weeks vs untreated controls; for pest or weed control at 320 g/ha: Fallopia convolvulus, 504 h, read-out: Pre-emergence effect at 320 g/ha against POLCO in %
From the text: as §1, §2, §3

SETVI = test: as above; type: in vivo, Setaria viridis; details: Setaria viridis, 504 h, 320 g/ha, scored visually after about 3 weeks vs untreated controls, read-out: Pre-emergence effect at 320 g/ha against SETVI in %
From the text: as §1, §2, §3

VERPE = test: as above; type: in vivo, Veronica persica; details: scored visually after about 3 weeks vs untreated controls
From the text: as §1, §2, §3

VIOTR = test: as above; type: in vivo, Viola tricolor; details: scored visually after about 3 weeks vs untreated controls
From the text: as §1, §2, §3

ZEAMX = test: Pre-emergence herbicidal effect and crop plant compatibility, greenhouse pot test; type: in vivo, Zea mays; details: scored visually after about 3 weeks vs untreated controls
From the text: as §1, §2, §3

KCHSC = test: Pre-emergence herbicidal effect, greenhouse pot test; type: in vivo; details: 320 g/ha, scored visually after about 3 weeks vs untreated controls
From the text: as §1, with “control plants. Tables 1a to 19c below show the effects/crop compatibilities of selected compounds of the general formula (I) on various harmful plants at an application rate corresponding to 20 to 320 g/ha, which were obtained by the trial procedure specified above.” for “control plants.”

Compound	Pre-emergence effect at 320 g/ha against ABUTH in % (ABUTH) [%]	Pre-emergence effect at 320 g/ha against ALOMY in % (ALOMY) [%]	Pre-emergence effect at 80 g/ha against AMARE in % (AMARE) [%]	pest or weed control at 320 g/ha (AMARE) [%]	Pre-emergence effect at 80 g/ha against AVEFA in % (AVEFA) [%]	Pre-emergence effect at 320 g/ha against AVEFA in % (AVEFA) [%]	Pre-emergence effect at 320 g/ha against DIGSA in % (DIGSA) [%]	Pre-emergence effect at 80 g/ha against ECHCG in % (ECHCG) [%]	pest or weed control at 320 g/ha (ECHCG) [%]	Pre-emergence effect at 320 g/ha against LOLRI in % (LOLRI) [%]	Pre-emergence effect at 80 g/ha against MATIN in % (MATIN) [%]	pest or weed control at 320 g/ha (MATIN) [%]	Pre-emergence effect at 80 g/ha against PHBPU in % (PHBPU) [%]	Pre-emergence effect at 320 g/ha against PHBPU in % (PHBPU) [%]	Pre-emergence effect at 20 g/ha against POLCO in % (POLCO) [%]	Pre-emergence effect at 80 g/ha against POLCO in % (POLCO) [%]	pest or weed control at 320 g/ha (POLCO) [%]	pest or weed control at 320 g/ha (SETVI) [%]	Pre-emergence effect at 320 g/ha against VERPE in % (VERPE) [%]	Pre-emergence effect at 320 g/ha against VIOTR in % (VIOTR) [%]	also measured
COC(=O)C(OC)Oc1nn(-c2cc(F)ccc2F)c(-c2cncc(F)c2)c1C1CC1 (stereo not shown) [Example I-31, Methyl {[4-cyclopropyl-1-(2,5-difluorophenyl)-5-(5-fluoropyridin-3-yl)-1H-pyrazol-3-yl]oxy}(methoxy)acetate]	80	100	100	100	90	90	90	90	100	100	90	100	90	90	80	100	100	90	90	100	Pre-emergence effect at 20 g/ha against AMARE in % (AMARE; 20 g/ha): 80%; Pre-emergence effect at 80 g/ha against VIOTR in % (VIOTR): 100%
COC(Oc1nn(-c2cc(F)ccc2F)c(-c2cncc(F)c2)c1C1CC1)C(=O)O (stereo not shown) [Example I-34]	90	100	100	100	90	100	80	90	100	100	90	90	90	90	90	90	90	90	80	100	Pre-emergence effect at 80 g/ha against ALOMY in % (ALOMY; 80 g/ha): 90%; Pre-emergence effect at 20 g/ha against AVEFA in % (AVEFA; 20 g/ha): 80%; Pre-emergence effect at 80 g/ha against LOLRI in % (LOLRI; 80 g/ha): 90%; Pre-emergence effect at 20 g/ha against VIOTR in % (VIOTR; 20 g/ha): 80%; Pre-emergence effect at 80 g/ha against VIOTR in % (VIOTR): 100%
COC(=O)C(OC)Oc1nn(-c2ccccc2F)c(-c2ccc(F)nc2)c1I (stereo not shown) [Example I-49]	–	90	90	100	–	90	100	–	90	90	–	90	–	–	–	–	80	100	–	90	Pre-emergence effect at 20 g/ha against ZEAMX in % (ZEAMX; 20 g/ha): 0%; Pre-emergence effect at 80 g/ha against ZEAMX in % (ZEAMX; 80 g/ha): 0%; Pre-emergence effect at 320 g/ha against KCHSC in % (KCHSC): 100%
